{"source": "patent US10220029B2", "about": "“Pharmaceutical composition comprising glutarimide derivatives and use thereof in the treatment of eosinophilic diseases” (OBSCHESTVO S ORGANICHENNOI OTVETSTVENNOSTIYU …, priority 2013, dated 2019)", "key": {"[1]": {"system": "model of bronchial asthma in guinea pigs", "experiment": "Content of cell elements in BAL in the model of bronchial asthma in guinea pigs", "format": "in vivo, guinea pig", "settings": "Table 4; 14 mg/kg, 10 times of administration; n = 9", "protocol": "Bronchial asthma in guinea pigs was induced by a standard method [Ricciardolo F L, Nijkamp F, De Rose V, Folkerts G. The guinea pig as an animal model for asthma// Current Drug Targets. 2008 June; 9(6):452-65]. The animals were immunized by one parenteral administration of 0.5 mL of a solution comprising 100 μg/mL ovalbumin (Sigma) and 100 mg/mL aluminium hydroxide. Intact animals received a physiological saline solution in an amount of 0.5 mL.\nOn days 29, 30 and 31, hyperactivity of the respiratory airways was provoked by inhalation administration of ovalbumin in ascending concentrations of 0.1, 0.3, and 0.5 mg/mL on days 1, 2, and 3 of the provocation, respectively. The inhalation lasted 5 minutes or until asphyxia symptoms became apparent (fall to one side). On day 32, the animals received a challenging dose of ovalbumin (1 mg/mL) for 5 minutes, while assessing a bronchospastic reaction.\nThe studied compounds were administered to the animals once daily every day for 6 or 10 days; the administration was terminated two days before the administration of the challenging dose of antigen.\nThe bronchoalveolar lavage (BAL) and cardiac cavity blood were derived from the animals 24 hours after administration of the challenging dose. The BAL was collected under anesthesia by lavaging the lungs with 5 mL of a physiological saline solution heated to 37° C. through the trachea, using a syringe dosing device.\nThe absolute number of cell elements in 1 μL of the lavage (cytosis) was counted in the bronchoalveolar lavage, using the Goryaev camera. Then, the BAL was centrifuged at 200 g for 10 minutes. The residue was used to prepare swabs that were fixed in methanol and stained according to Romanovsky-Giemsa to count endopulmonary cytogram.\nThe study comprised 3 experiments, wherein the first one was directed to the evaluation of the effect of claimed compounds 1-6 on the cell composition of the BAL, the second and the third experiments were aimed at evaluating the effect of compounds 1 and 2 on the cell composition of the BAL, the cell composition of the blood, and on the bronchospasm severity."}, "[2]": {"system": "model of sephadex-induced eosinophilic lung inflammation in rats", "experiment": "Content of cell elements in BAL in the model of sephadex-induced eosinophilic lung inflammation in rats", "format": "in vivo, male Wistar rats", "settings": "Table 9, four times, BAL 48 hours after sephadex, n = 7", "protocol": "The model of sephadex-induced eosinophilic lung inflammation in rats was realized by a standard method [Evaldsson C, Rydén I, Uppugunduri S. Isomaltitol exacerbates neutrophilia but reduces eosinophilia: new insights into the sephadex model of lung inflammation//Int Arch Allergy Immunol. 2011; 154(4):286-94]. Sephadex G-200 (Pharmacia, Sweden) was administered one time by inhalation to male Wistar rats at a dose of 5 mg/kg. The studied compounds were administered to the animals by the intragastric route four times: 24 hours and 1 hour before and 24 hours and 45 hours after administration of sephadex. The reference preparation, budesonide, was administered according to the same scheme, by inhalation at a dose of 0.5 mg/kg. Bronchoalveolar lavage was taken 48 hours after the inhalation of sephadex, and the total lymphocyte count and leukocyte formula in the lavage were determined. The number of rats in a group was 7 to 10."}, "[3]": {"system": "model of allergic rhinitis in guinea pigs", "experiment": "Content of cell elements in the nasal lavage in the model of allergic rhinitis in guinea pigs", "format": "in vivo, guinea pig", "settings": "n = 8", "protocol": "(§1) The model of allergic rhinitis in guinea pigs was realized by a standard method [Vishnu N. Thakare, M. M. Osama, Suresh R. Naik. […] 2013 September; 17(1):18-25].\n(§2) Guinea pigs (250-300 g) were immunized with 4-time (on days 0, 7, 14, and 21) intragastric administration of ovalbumin (100 μg/pig) and aluminium hydroxide (5 mg/pig), both of which were diluted and suspended in a physiological saline solution. […], a solution of ovalbumin (60 mg/mL) was administered intranasally to each nostril of the animals at a dose 20 μL. On day 35, the animals received subcutaneously an ovalbumin solution (200 μg/mL, 25 μL); the animal back was previously shaved in the site of administration. Swelling and redness at the injection site served as a support of sensibilisation. On day 42 of the study, an ovalbumin solution (60 mg/mL, 20 μL/nostril) was administered intranasally. A group of pseudoimmunized animals was formed to control the formation of exactly allergic inflammation: on days 0, 7, 14, and 21, the pigs received a solution of aluminium hydroxide (5 mg/pig), and on days 28 and 35, they received a physiological saline solution, and on day 42, a solution of ovalbumin (60 mg/mL, 20 μL/nostril).\n(§3) The studied compounds (14 mg/kg) were administered 3 times by the intragastric route: 48, 24, and 1 hour before the last administration of ovalbumin. The reference preparation, dexamethasone, was administered one time by the intragastric route, 3 hours before the last intranasal administration of ovalbumin.\n(§4) Clinical manifestations, such as the number of sneezes and nose scratchings, were registered for 2 hours after the last administration of ovalbumin. Nasal lavage was taken 24 hours after the last administration of ovalbumin, and in this lavage, the total lymphocyte count and leukocyte formula were determined. The number of guinea pigs in a group was 8."}, "[4]": {"system": "model of allergic rhinitis in guinea pigs", "experiment": "Clinical manifestations of allergic rhinitis in guinea pigs (sneezes, nose scratchings)", "format": "in vivo, guinea pig", "settings": "2 hours after last ovalbumin, n = 8", "protocol": "as §1, §2, §3, §4"}, "[5]": {"system": "model of atopic dermatitis in mice", "experiment": "Response index in DNCB-induced atopic (allopathic) dermatitis in mice", "format": "in vivo, male Balb/c mice", "settings": "10 mg/kg intragastric once daily on days 8-17 (reference preparation); n = 12", "protocol": "The model of allopathic dermatitis was realized by a standard method [Mechanism of dinitrochlorobenzene-induced dermatitis in mice: role of specific antibodies in pathogenesis//PLoS One. 2009; 4(11)].\nOn days 0 and 12 of the study, 100 μL of a 2% solution of 1-chloro-2,4-dinitrobenzene (DNCB, Sigma-Aldrich, US) in 95% ethanol was applied to shaved sites in the backs of male Balb/c mice. On day 17 of the study, to the right “studied” ear of the animals, 20 μL of the alcohol solution of 2% DNCB was applied two times with a one-hour interval. The studied compound and the reference preparation, dexamethasone, were administered by the intragastric route once daily on days 8-17 of the study.\nOn day 18 of the study, the animals were euthanized in a CO2 camera. The weights of the “studied” and “control” ears were measured. A response index (RI) expressed in percentage of a difference in the weights of the “studied” and “control” ears was calculated."}, "[6]": {"settings": "14 mg/kg intragastric, 3 times, nasal lavage 24 hours after last ovalbumin"}, "[7]": {"settings": "5 mg/kg intragastric, one time 3 hours before last ovalbumin (reference preparation)"}, "[8]": {"settings": "5 mg/kg intragastric, one time (reference preparation)"}}, "note": "Marks after values point to notes of the source that are not given here.", "data": [{"compound": "Cn1cnc(CCN2C(=O)CCCC2=O)c1", "note": "[Compound 5]", "values": [{"measurement": "Eosinophils in BAL", "setting": "[1]", "value": "1.61 ± 0.86*& 10^9/L"}, {"measurement": "Lymphocytes in BAL", "setting": "[1]", "value": "1.35 ± 0.34* 10^9/L"}, {"measurement": "Monocytes in BAL", "setting": "[1]", "value": "0.84 ± 0.23* 10^9/L"}, {"measurement": "Neutrophils in BAL", "setting": "[1]", "value": "1.05 ± 0.33 10^9/L"}, {"measurement": "Eosinophils, content of cell elements in 1 μL of BAL", "setting": "[2]; 1.8 mg/kg intragastric", "value": "147 ± 44& in 1 μL of BAL"}, {"measurement": "Leukocytes, content of cell elements in 1 μL of BAL", "setting": "[2]; 1.8 mg/kg intragastric", "value": "2064 ± 257& in 1 μL of BAL"}, {"measurement": "Lymphocytes, content of cell elements in 1 μL of BAL", "setting": "[2]; 1.8 mg/kg intragastric", "value": "66 ± 26 in 1 μL of BAL"}, {"measurement": "Macrophages, content of cell elements in 1 μL of BAL", "setting": "[2]; 1.8 mg/kg intragastric", "value": "1576 ± 93& in 1 μL of BAL"}, {"measurement": "Neutrophils, content of cell elements in 1 μL of BAL", "setting": "[2]; 1.8 mg/kg intragastric", "value": "385 ± 57 in 1 μL of BAL"}, {"measurement": "Eosinophils, content of cell elements in 1 μL of BAL", "setting": "[2]; 18 mg/kg intragastric", "value": "34 ± 15& in 1 μL of BAL"}, {"measurement": "Leukocytes, content of cell elements in 1 μL of BAL", "setting": "[2]; 18 mg/kg intragastric", "value": "2189 ± 222& in 1 μL of BAL"}, {"measurement": "Lymphocytes, content of cell elements in 1 μL of BAL", "setting": "[2]; 18 mg/kg intragastric", "value": "121 ± 48 in 1 μL of BAL"}, {"measurement": "Macrophages, content of cell elements in 1 μL of BAL", "setting": "[2]; 18 mg/kg intragastric", "value": "1331 ± 66 & in 1 μL of BAL"}, {"measurement": "Neutrophils, content of cell elements in 1 μL of BAL", "setting": "[2]; 18 mg/kg intragastric", "value": "605 ± 124 in 1 μL of BAL"}, {"measurement": "Eosinophils, content of cell elements in 1 μL of nasal lavage", "setting": "[3]; [6]", "value": "575 ± 143& in 1 μL of nasal lavage"}, {"measurement": "Leukocytes, content of cell elements in 1 μL of nasal lavage", "setting": "[3]; [6]", "value": "1071 ± 233& in 1 μL of nasal lavage"}, {"measurement": "Lymphocytes, content of cell elements in 1 μL of nasal lavage", "setting": "[3]; [6]", "value": "9 ± 7 in 1 μL of nasal lavage"}, {"measurement": "Macrophages, content of cell elements in 1 μL of nasal lavage", "setting": "[3]; [6]", "value": "198 ± 54 in 1 μL of nasal lavage"}, {"measurement": "Neutrophils, content of cell elements in 1 μL of nasal lavage", "setting": "[3]; [6]", "value": "344 ± 50& in 1 μL of nasal lavage"}, {"measurement": "Number of nose scratchings/2 hours", "setting": "[4]; 14 mg/kg intragastric, 3 times", "value": "19.1 ± 4.9 &"}, {"measurement": "Number of sneezes/2 hours", "setting": "[4]; 14 mg/kg intragastric, 3 times", "value": "7.1 ± 1.3 &"}]}, {"compound": "C[C@@H]1C[C@H]2[C@@H]3CCC4=CC(=O)C=C[C@]4(C)[C@@]3(F)[C@@H](O)C[C@]2(C)[C@@]1(O)C(=O)CO", "note": "[Dexamethasone, dexamethasone, reference compound]", "values": [{"measurement": "Eosinophils, content of cell elements in 1 μL of nasal lavage", "setting": "[3]; [7]", "value": "365 ± 90& in 1 μL of nasal lavage"}, {"measurement": "Leukocytes, content of cell elements in 1 μL of nasal lavage", "setting": "[3]; [7]", "value": "1186 ± 142& in 1 μL of nasal lavage"}, {"measurement": "Lymphocytes, content of cell elements in 1 μL of nasal lavage", "setting": "[3]; [7]", "value": "5 ± 3 in 1 μL of nasal lavage"}, {"measurement": "Macrophages, content of cell elements in 1 μL of nasal lavage", "setting": "[3]; [7]", "value": "296 ± 71 in 1 μL of nasal lavage"}, {"measurement": "Neutrophils, content of cell elements in 1 μL of nasal lavage", "setting": "[3]; [7]", "value": "328 ± 47& in 1 μL of nasal lavage"}, {"measurement": "Number of nose scratchings/2 hours", "setting": "[4]; [8]", "value": "16.7 ± 1.8*&"}, {"measurement": "Number of sneezes/2 hours", "setting": "[4]; [8]", "value": "7.9 ± 0.8 &"}, {"measurement": "Response index (%)", "setting": "[5]", "value": "65.6 ± 8*& %"}]}]}
